Source: US20180117000A1, “ENERGY METABOLIC ACTIVATING AGENT FOR MUSCLE CELLS” (ORYZA OIL & FAT CHEMICAL CO., LTD., priority 2015, published 2018)
“Also recorded” adds a separate entry of the source.

Experiments:
[1] = test system: PGC-1α; assay: Evaluation of the PGC-1α-expression promoting effect: PGC-1α mRNA by RT-PCR in C2C12; type: cell-based, Mouse; details: Compounds at 1 μM or 10 μM, C2C12 myoblast cells, cultured one week, GAPDH endogenous control, vs DMSO control, FIG. 3
Method: Mouse-muscle myoblast-cell lines C2C12 (cultured in DMEM FCS10%) were seeded in 24 well plates for determining the mRNA expression (1×10^4 cells/ml) and then were cultured for 24 hours. After 24 hours, the black-ginger extract (10 μg/mL) or the separated fractions (Compounds 1-8) were added to the culture media (DMEM FCS 1%) for differentiation induction until the concentration became 1 μM or 10 μM (i.e. until the concentration of the sample dissolved in each DMSO (dimethyl sulfoxide) became 0.1% (v/v) regarding the culture media). Then, the black-ginger extract and the separated fractions were cultured for one week. For control, the DMSO was added to the culture media in concentration of 0.1% (v/v). After being cultured for one week, the cells were collected, and the RNA was extracted. Regarding the collected RNA, by using RT-PCR (reverse-transcription polymerase-chain reaction), the expressed mRNA amount of the PGC-1α was identified. At that time, as an endogenous-control, GAPDH (Glyceraldehyde 3-phosphate dehydrogenase) was used.

[2] = test system: sugar transporter (GLUT4); assay: Evaluation of sugar-transporter (GLUT4) gene-expression promotion: GLUT4 mRNA by RT-PCR in C2C12; type: cell-based, Mouse; details: Compounds at 1 μM or 10 μM, C2C12 myoblast cells, cultured one week, GAPDH endogenous control, vs DMSO control, FIG. 2
Method: Mouse-muscle myoblast-cell lines C2C12 (cultured in DMEM FCS10%) were seeded in 24 well plates for determining the mRNA expression (1×10^4 cells/ml) and then were cultured for 24 hours. […] Then, the black-ginger extract and the separated fractions were cultured for one week. For control, the DMSO was added to the culture media in concentration of 0.1% (v/v). After being cultured for one week, the cells were collected, and the RNA was extracted. Regarding the collected RNA, by using RT-PCR (reverse-transcription polymerase chain-reaction), the expressed mRNA amount of the sugar transporter (GLUT4) was identified. At that time, as an endogenous-control, GAPDH (Glyceraldehyde 3-phosphate dehydrogenase) was used.

| Structure (SMILES) | mRNA expression of the PGC-1α [1] | mRNA expression of the sugar transporter (GLUT4) [2] |
| --- | --- | --- |
| COc1cc(O)c2c(=O)cc(-c3ccccc3)oc2c1 [Compound 2, Techtochrysin] | Significant increases; also recorded: stronger activity | Significant expressed-promotion increases |
| COc1cc(O)c2c(=O)c(OC)c(-c3ccc(OC)c(OC)c3)oc2c1 [Compound 4, retusine] | lower activity | – |
| COc1cc(OC)c2c(=O)cc(-c3ccccc3)oc2c1 [Compound 8, 5,7-dimethoxyflavone] | Significant increases; also recorded: stronger activity | Significant expressed-promotion increases |
| COc1ccc(-c2oc3cc(OC)cc(O)c3c(=O)c2OC)cc1 [Compound 3, 3,7,4′-Trimethylkaempferol] | – | Significant expressed-promotion increases |
